Data published in PubChem BioAssay AID1963869 (Molecular Pharmacology Branch, DTP, NCI, 2024).

System: KRAS patient-derived spheroids with HUVEC/MSC, viability
Assay: Anticancer human tumor 323965-272-R-J2-PDC patient-derived pancreatic carcinoma cell line growth inhibition [KRAS2]
Conditions: for viability, T/C: stronger effect = lower value
Procedure, shortened: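 KRAS-mutant tumor cells were grown as spheroids with HUVEC endothelial cells and human MSCs as stroma. Targeted agents were tested alone and with KRAS pathway inhibitors. Doses started at or near clinical Cmax, or 10 microM, descending half-log.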

[1] = curve of first compound, second compound 0.1 µM
[2] = curve of first compound, second compound 0.316 µM
[3] = curve of first compound, second compound 1 µM
[4] = curve of first compound, second compound 3.16 µM
[5] = curve of first compound, second compound 10 µM
[6] = second compound 0.1 µM, first compound 0.0316 µM
[7] = second compound 0.1 µM, first compound 0.1 µM
[8] = second compound 0.1 µM, first compound 0.316 µM
[9] = second compound 0.1 µM, first compound 1 µM
[10] = second compound 0.1 µM, first compound 3.16 µM
[11] = second compound 0.1 µM, first compound 10 µM
[12] = second compound 0.316 µM, first compound 0.0316 µM
[13] = second compound 0.316 µM, first compound 0.1 µM
[14] = second compound 0.316 µM, first compound 0.316 µM
[15] = second compound 0.316 µM, first compound 1 µM
[16] = second compound 0.316 µM, first compound 3.16 µM
[17] = second compound 0.316 µM, first compound 10 µM
[18] = second compound 1 µM, first compound 0.0316 µM
[19] = second compound 1 µM, first compound 0.1 µM
[20] = second compound 1 µM, first compound 0.316 µM
[21] = second compound 1 µM, first compound 1 µM
[22] = second compound 1 µM, first compound 3.16 µM
[23] = second compound 1 µM, first compound 10 µM
[24] = second compound 3.16 µM, first compound 0.0316 µM
[25] = second compound 3.16 µM, first compound 0.1 µM
[26] = second compound 3.16 µM, first compound 0.316 µM
[27] = second compound 3.16 µM, first compound 1 µM
[28] = second compound 3.16 µM, first compound 3.16 µM
[29] = second compound 3.16 µM, first compound 10 µM
[30] = second compound 10 µM, first compound 0.0316 µM
[31] = second compound 10 µM, first compound 0.1 µM
[32] = second compound 10 µM, first compound 0.316 µM
[33] = second compound 10 µM, first compound 1 µM
[34] = second compound 10 µM, first compound 3.16 µM
[35] = second compound 10 µM, first compound 10 µM
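Note: spheroids exposed to agents for 7 days.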
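Throughout, for viability, T/C: 100% = DMSO vehicle control viability.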

Row | Structure (SMILES) | IC50 [1] [µM] | IC50 [2] [µM] | IC50 [3] [µM] | IC50 [4] [µM] | IC50 [5] [µM] | viability, T/C [6] [%] | viability, T/C [7] [%] | viability, T/C [8] [%] | viability, T/C [9] [%] | viability, T/C [10] [%] | viability, T/C [11] [%] | viability, T/C [12] [%] | viability, T/C [13] [%] | viability, T/C [14] [%] | viability, T/C [15] [%] | viability, T/C [16] [%] | viability, T/C [17] [%] | viability, T/C [18] [%] | viability, T/C [19] [%] | viability, T/C [20] [%] | other results
1 | COC(=O)c1ccc2c(C(=Nc3ccc(N(C)C(=O)CN4CCN(C)CC4)cc3)c3ccccc3)c(O)[nH]c2c1 + COc1cc2nc(C)nc(NC(C)c3cc(N)cc(C(F)(F)F)c3)c2cc1OC1CCOC1 | > 10 | > 10 | > 10 | > 10 | > 10 | 92.9 | 102 | 102 | 106 | 92.6 | 86 | 89.3 | 81 | 84.1 | 78.8 | 78.1 | 74.6 | 82.6 | 73.2 | 76.8 | viability, T/C [21]: 74.6%; viability, T/C [22]: 70.8%; viability, T/C [23]: 68.9%; viability, T/C [24]: 77.3%; viability, T/C [25]: 77.6%; viability, T/C [26]: 75.6%; viability, T/C [27]: 81.5%; viability, T/C [28]: 79.3%; viability, T/C [29]: 75.7%; viability, T/C [30]: 90.8%; viability, T/C [31]: 86%; viability, T/C [32]: 77.4%; viability, T/C [33]: 72.8%; viability, T/C [34]: 77.8%; viability, T/C [35]: 69.7%
2 | COc1cc2nccc(Oc3ccc(NC(=O)C4(C(=O)Nc5ccc(F)cc5)CC4)cc3)c2cc1OC + CNCc1ccccc1-c1csc(C(C)Nc2nc(C)nc3cc(OC)c(OC)cc23)c1 | > 10 | > 10 | > 10 | 4.24 | < 0.0316 | 91.7 | 99.3 | 110 | 101 | 85.2 | 87.2 | 87.2 | 88.7 | 100 | 93.2 | 91.4 | 82 | 105 | 99 | 102 | viability, T/C [21]: 101%; viability, T/C [22]: 92.6%; viability, T/C [23]: 72.7%; viability, T/C [24]: 95.4%; viability, T/C [25]: 91.8%; viability, T/C [26]: 92.2%; viability, T/C [27]: 91.6%; viability, T/C [28]: 66.5%; viability, T/C [29]: 1.54%; viability, T/C [30]: 0.33%; viability, T/C [31]: 0.3%; viability, T/C [32]: 0.27%; viability, T/C [33]: 0.75%; viability, T/C [34]: 0.33%; viability, T/C [35]: 0.34%
3 | O=C(c1cc(Cc2n[nH]c(=O)c3ccccc23)ccc1F)N1CCN(C(=O)C2CC2)CC1 |  |  |  |  |  |  |  |  |  |  |  |  |  |  |  |  |  |  |  |  | viability, T/C (compound 0.0316 µM): 102% [middle of 5 runs]; viability, T/C (compound 0.1 µM): 102% [middle of 5 runs]; viability, T/C (compound 0.316 µM): 96.4% [middle of 5 runs]; viability, T/C (compound 1 µM): 100% [middle of 5 runs]; viability, T/C (compound 3.16 µM): 92.1% [middle of 5 runs]; viability, T/C (compound 10 µM): 59.7% [middle of 5 runs]; IC50 (curve of compound): > 10 µM
